Reference: patent US20260001847A1, “HERBICIDAL QUINOLONE DERIVATIVES” (SYNGENTA CROP PROTECTION AG, priority 2022, published 2026)

Columns and labels:
Format in all cases: in vivo
Conditions in all cases: 1000 g/ha, evaluated after 13 days
[1] = system: Abutilon theophrasti (ABUTH); test: Pre-emergence Test
[2] = system: Ipomoea hederacea (IPOHE); test: Pre-emergence Test
[3] = system: Setaria faberi (SETFA); test: Pre-emergence Test
[4] = system: Echinochloa crus-galli (ECHCG); test: Pre-emergence Test
[5] = system: Zea mays (ZEAMX); test: Pre-emergence Test
[6] = system: Amaranthus retoflexus (AMARE); test: Post-emergence Test
Description: (§1) Seeds of a variety of test species are sown in standard soil in pots (Abutilon theophrasti (ABUTH), Ipomoea hederacea (IPOHE). Setaria faberi (SETFA), Echinochloa crus-galli (ECHCG), Zea mays (ZEAMX), Amaranthus retoflexus (AMARE), Solanum nigrum (SOLNI), Lolium perenne (LOLPE), Amaranthus palmeri (AMAPA)). After 8 days cultivation under controlled conditions in a glasshouse (at 24° C./16° C., day/night-; 14 hours light; 65% humidity), the plants are sprayed with an aqueous spray solution derived from the formulation of the technical active ingredient in acetone/water (50:50) solution containing 0.5% Tween 20 (polyoxyethylene sorbitan monolaurate, CAS RN 9005-64-5). Compounds are applied at 1000 g/ha unless otherwise stated. The test plants are then grown in a glasshouse under controlled conditions in a glasshouse (at 24° C./16° C., day/night; 14 hours light; 65% humidity) and watered twice daily. After 13 days the test is evaluated for the percentage damage caused to the plant. The biological activities are shown in the following table on a five-point scale (5=81-100%; 4=61-80%; 3=41-60%; 2=21-40%; 1=0-20%; -=not tested).

[7] = system: Echinochloa crus-galli (ECHCG); test: Post-emergence Test
Description: as §1

[8] = system: Ipomoea hederacea (IPOHE); test: Post-emergence Test
Description: as §1

[9] = system: Setaria faberi (SETFA); test: Post-emergence Test
Description: as §1

[10] = system: Zea mays (ZEAMX); test: Post-emergence Test
Description: as §1

[11] = system: Amaranthus retoflexus (AMARE); test: Pre-emergence Test
[12] = system: Solanum nigrum (SOLNI); test: Pre-emergence Test
[13] = system: Lolium perenne (LOLPE); test: Pre-emergence Test
[14] = system: Abutilon theophrasti (ABUTH); test: Post-emergence Test
Description: as §1

[15] = system: Lolium perenne (LOLPE); test: Post-emergence Test
Description: as §1

[16] = system: Solanum nigrum (SOLNI); test: Post-emergence Test
Description: as §1

[17] = system: Amaranthus palmeri (AMAPA); test: Pre-emergence Test
[18] = system: Amaranthus palmeri (AMAPA); test: Post-emergence Test
Description: as §1

Row | Compound | percentage damage caused to the plant, ABUTH [1] | percentage damage caused to the plant, IPOHE [2] | percentage damage caused to the plant, SETFA [3] | percentage damage caused to the plant, ECHCG [4] | percentage damage caused to the plant, ZEAMX [5] | percentage damage caused to the plant, AMARE [6] | percentage damage caused to the plant, ECHCG [7] | percentage damage caused to the plant, IPOHE [8] | percentage damage caused to the plant, SETFA [9] | percentage damage caused to the plant, ZEAMX [10] | percentage damage caused to the plant, AMARE [11] | percentage damage caused to the plant, SOLNI [12] | percentage damage caused to the plant, LOLPE [13] | percentage damage caused to the plant, ABUTH [14] | percentage damage caused to the plant, LOLPE [15] | percentage damage caused to the plant, SOLNI [16] | percentage damage caused to the plant, AMAPA [17] | percentage damage caused to the plant, AMAPA [18]
1 | CCn1c(-c2ccc(Cl)c(Cl)c2)c(C(=O)O)c(=O)c2ccc(OC)cc21 [Compound 1, 2-(3,4-dichlorophenyl)-1-ethyl-7-methoxy-4-oxo-quinoline-3-carboxylic acid] | 3 (3=41-60%) | 2 (2=21-40%) | 2 (2=21-40%) | 1 (1=0-20%) | 1 (1=0-20%) | 0 | 1 (1=0-20%) | 3 (3=41-60%) | 2 (2=21-40%) | 0 |  |  |  |  |  |  |  | 
2 | CCn1c(-c2ccc(Cl)c(Cl)c2)c(C(=O)O)c(=O)c2c(C(F)(F)F)cccc21 [Compound 2, 2-(3,4-dichlorophenyl)-1-ethyl-4-oxo-5-(trifluoromethyl)quinoline-3-carboxylic acid] | 2 (2=21-40%) | 2 (2=21-40%) | 5 (5=81-100%) | 5 (5=81-100%) | 1 (1=0-20%) | 2 (2=21-40%) | 5 (5=81-100%) | 3 (3=41-60%) | 4 (4=61-80%) | 3 (3=41-60%) | 2 (2=21-40%) | 2 (2=21-40%) | 0 | 3 (3=41-60%) | 1 (1=0-20%) | 2 (2=21-40%) |  | 
3 | CCn1c(-c2ccc(Cl)c(Cl)c2)c(C(=O)O)c(=O)c2cc(Br)ccc21 [Compound 8, 6-bromo-2-(3,4-dichlorophenyl)-1-ethyl-4-oxo-quinoline-3-carboxylic acid] |  | 1 (1=0-20%) | 5 (5=81-100%) | 5 (5=81-100%) | 2 (2=21-40%) | 0 | 4 (4=61-80%) | 4 (4=61-80%) | 4 (4=61-80%) | 4 (4=61-80%) | 1 (1=0-20%) |  |  |  |  |  | 2 (2=21-40%) | 1 (1=0-20%)
4 | CCn1c(-c2ccc(Cl)c(Cl)c2)c(C(=O)O)c(=O)c2cc(SC)ccc21 [Compound 11, 2-(3,4-dichlorophenyl)-1-ethyl-6-methylsulfanyl-4-oxo-quinoline-3-carboxylic acid] |  | 1 (1=0-20%) | 5 (5=81-100%) | 5 (5=81-100%) | 2 (2=21-40%) | 2 (2=21-40%) | 4 (4=61-80%) | 1 (1=0-20%) | 3 (3=41-60%) | 2 (2=21-40%) | 1 (1=0-20%) |  |  |  |  |  | 3 (3=41-60%) | 3 (3=41-60%)
5 | CCn1c(-c2ccc(Cl)c(Cl)c2)c(C(=O)O)c(=O)c2cc(S(C)(=O)=O)ccc21 [Compound 12, 2-(3,4-dichlorophenyl)-1-ethyl-6-methylsulfonyl-4-oxo-quinoline-3-carboxylic acid] |  | 1 (1=0-20%) | 5 (5=81-100%) | 5 (5=81-100%) | 1 (1=0-20%) | 3 (3=41-60%) | 4 (4=61-80%) | 2 (2=21-40%) | 3 (3=41-60%) | 1 (1=0-20%) | 3 (3=41-60%) |  |  |  |  |  | 3 (3=41-60%) | 2 (2=21-40%)
6 | CCn1c(-c2ccc(Cl)c(Cl)c2)c(C(=O)O)c(=O)c2cc(C)ccc21 [Compound 14, 2-(3,4-dichlorophenyl)-1-ethyl-6-methyl-4-oxo-quinoline-3-carboxylic acid] |  | 2 (2=21-40%) | 4 (4=61-80%) | 4 (4=61-80%) | 2 (2=21-40%) | 5 (5=81-100%) | 3 (3=41-60%) | 3 (3=41-60%) | 3 (3=41-60%) | 2 (2=21-40%) | 5 (5=81-100%) |  |  |  |  |  | 5 (5=81-100%) | 5 (5=81-100%)
7 | CCn1c(-c2ccc(Cl)c(Cl)c2)c(C(=O)O)c(=O)c2cc(OC)ccc21 [Compound 15, 2-(3,4-dichlorophenyl)-1-ethyl-6-methoxy-4-oxo-quinoline-3-carboxylic acid] |  | 2 (2=21-40%) | 5 (5=81-100%) | 4 (4=61-80%) | 1 (1=0-20%) | 2 (2=21-40%) | 3 (3=41-60%) | 2 (2=21-40%) | 2 (2=21-40%) | 1 (1=0-20%) | 3 (3=41-60%) |  |  |  |  |  | 3 (3=41-60%) | 2 (2=21-40%)
8 | CCn1c(-c2ccc(F)cc2)c(C(=O)O)c(=O)c2ccccc21 [Compound 18, 1-ethyl-2-(4-fluorophenyl)-4-oxo-quinoline-3-carboxylic acid] |  | 0 | 3 (3=41-60%) | 2 (2=21-40%) | 0 | 1 (1=0-20%) | 1 (1=0-20%) | 0 | 1 (1=0-20%) | 1 (1=0-20%) | 1 (1=0-20%) |  |  |  |  |  | 1 (1=0-20%) | 1 (1=0-20%)
